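1) Cells in 96-well plates. 2) Compound, 48 h, 5 concentrations. 3) Linear interpolation between surrounding doses. 4) Unreached endpoint = highest concentration. TGI marks complete inhibition of growth.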
Tests used:
Test in all cases: NCI-60 cell line screen, 48 h
DU-145 prostate = test system: DU-145 prostate
SF-295 CNS = test system: SF-295 CNS
NCI-H23 lung = test system: NCI-H23 lung
HT29 colon = test system: HT29 colon
IGROV1 ovarian = test system: IGROV1 ovarian
COLO 205 colon = test system: COLO 205 colon
OVCAR-8 ovarian = test system: OVCAR-8 ovarian
786-0 renal = test system: 786-0 renal
KM12 colon = test system: KM12 colon
MALME-3M melanoma = test system: MALME-3M melanoma
RXF 393 renal = test system: RXF 393 renal
SW-620 colon = test system: SW-620 colon
MDA-N = test system: MDA-N
SN12C renal = test system: SN12C renal
SK-OV-3 ovarian = test system: SK-OV-3 ovarian
K-562 leukemia = test system: K-562 leukemia
SNB-75 CNS = test system: SNB-75 CNS
HCT-15 colon = test system: HCT-15 colon
UACC-257 melanoma = test system: UACC-257 melanoma
UACC-62 melanoma = test system: UACC-62 melanoma
TK-10 renal = test system: TK-10 renal
M14 melanoma = test system: M14 melanoma
HOP-62 NSCLC = test system: HOP-62 NSCLC
CAKI-1 renal = test system: CAKI-1 renal
SR leukemia = test system: SR leukemia
SF-268 CNS = test system: SF-268 CNS
MOLT-4 leukemia = test system: MOLT-4 leukemia
CCRF-CEM leukemia = test system: CCRF-CEM leukemia
HCC-2998 colon = test system: HCC-2998 colon
EKVX NSCLC = test system: EKVX NSCLC
HL-60(TB) leukemia = test system: HL-60(TB) leukemia
LOX IMVI melanoma = test system: LOX IMVI melanoma
T-47D breast = test system: T-47D breast
MDA-MB-231 breast = test system: MDA-MB-231 breast
PC-3 prostate = test system: PC-3 prostate
A549 NSCLC = test system: A549 NSCLC
SK-MEL-28 melanoma = test system: SK-MEL-28 melanoma
RPMI-8226 leukemia = test system: RPMI-8226 leukemia
MCF7 breast = test system: MCF7 breast
SK-MEL-5 melanoma = test system: SK-MEL-5 melanoma
OVCAR-5 ovarian = test system: OVCAR-5 ovarian
UO-31 renal = test system: UO-31 renal
NCI-H522 lung = test system: NCI-H522 lung
HS 578T breast = test system: HS 578T breast
ACHN renal = test system: ACHN renal
OVCAR-3 ovarian = test system: OVCAR-3 ovarian
NCI/ADR-RES ovarian = test system: NCI/ADR-RES ovarian
HCT-116 colon = test system: HCT-116 colon
SF-539 CNS = test system: SF-539 CNS
SNB-19 CNS = test system: SNB-19 CNS
MDA-MB-435 = test system: MDA-MB-435
NCI-H460 lung = test system: NCI-H460 lung
SK-MEL-2 melanoma = test system: SK-MEL-2 melanoma

`CN1CCN(c2cc3nsnc3c3nsnc23)CC1` was tested, and the TGI (DU-145 prostate) was over 10 µM, the TGI (SF-295 CNS) was over 10 µM and the TGI (NCI-H23 lung) was over 10 µM. It also gave a TGI (HT29 colon) of over 10 µM, a TGI (IGROV1 ovarian) of over 10 µM and a TGI (COLO 205 colon) of over 10 µM. For the same molecule, the TGI (OVCAR-8 ovarian) was over 10 µM, the TGI (786-0 renal) was over 10 µM and the TGI (KM12 colon) was over 10 µM. It also gave a TGI (MALME-3M melanoma) of over 10 µM, a TGI (RXF 393 renal) of over 10 µM and a TGI (SW-620 colon) of over 10 µM. For the same molecule, the TGI (MDA-N) was over 10 µM, the TGI (SN12C renal) was over 10 µM and the TGI (SK-OV-3 ovarian) was over 10 µM. The TGI (K-562 leukemia) was over 10 µM, the TGI (SNB-75 CNS) was over 10 µM and the TGI (HCT-15 colon) was over 10 µM. For the same molecule, the TGI (UACC-257 melanoma) was over 10 µM, the TGI (UACC-62 melanoma) was over 10 µM and the TGI (TK-10 renal) was over 10 µM. For the same molecule, the TGI (M14 melanoma) was over 10 µM, the TGI (HOP-62 NSCLC) was over 10 µM and the TGI (CAKI-1 renal) was over 10 µM. For the same molecule, the TGI (SR leukemia) was over 10 µM, the TGI (SF-268 CNS) was over 10 µM and the TGI (MOLT-4 leukemia) was over 10 µM. It also gave a TGI (CCRF-CEM leukemia) of over 10 µM, a TGI (HCC-2998 colon) of over 10 µM and a TGI (EKVX NSCLC) of over 10 µM. For the same molecule, the TGI (HL-60(TB) leukemia) was over 10 µM, the TGI (LOX IMVI melanoma) was over 10 µM and the TGI (T-47D breast) was over 10 µM. It also gave a TGI (MDA-MB-231 breast) of over 10 µM, a TGI (PC-3 prostate) of over 10 µM and a TGI (A549 NSCLC) of over 10 µM. For the same molecule, the TGI (SK-MEL-28 melanoma) was over 10 µM, the TGI (RPMI-8226 leukemia) was over 10 µM and the TGI (MCF7 breast) was over 10 µM. It also gave a TGI (SK-MEL-5 melanoma) of over 10 µM.

Work on `COc1ccc(C2c3cc4c(cc3OC(N3CCOCC3)C2C)OCO4)c(OC)c1OC` (stereo unspecified) yielded a TGI (SF-295 CNS) of 43 µM, a TGI (OVCAR-5 ovarian) of 74.3 µM and a TGI (NCI-H23 lung) of over 100 µM. The TGI (HT29 colon) was 52.2 µM, the TGI (IGROV1 ovarian) was 70.7 µM and the TGI (COLO 205 colon) was 33.6 µM. It also gave a TGI (OVCAR-8 ovarian) of over 100 µM, a TGI (UO-31 renal) of 35.1 µM and a TGI (786-0 renal) of 43.2 µM. The TGI (NCI-H522 lung) was 29.7 µM, the TGI (KM12 colon) was 30.8 µM and the TGI (HS 578T breast) was 19.2 µM. The TGI (SW-620 colon) was over 100 µM, the TGI (MDA-N) was 8.42 µM and the TGI (SN12C renal) was over 100 µM. The TGI (ACHN renal) was 64.9 µM, the TGI (OVCAR-3 ovarian) was 45.6 µM and the TGI (K-562 leukemia) was 21 µM. It also gave a TGI (HCT-15 colon) of over 100 µM, a TGI (NCI/ADR-RES ovarian) of over 100 µM and a TGI (HCT-116 colon) of 22.3 µM. It also gave a TGI (UACC-257 melanoma) of 82.2 µM, a TGI (UACC-62 melanoma) of 69.7 µM and a TGI (TK-10 renal) of 70.5 µM. For the same molecule, the TGI (M14 melanoma) was 33.5 µM, the TGI (HOP-62 NSCLC) was over 100 µM and the TGI (SF-539 CNS) was 27.7 µM. For the same molecule, the TGI (CAKI-1 renal) was 9.74 µM, the TGI (SNB-19 CNS) was 39.1 µM and the TGI (SR leukemia) was 35.6 µM. For the same molecule, the TGI (MDA-MB-435) was 7.01 µM, the TGI (SF-268 CNS) was 79.8 µM and the TGI (MOLT-4 leukemia) was 34 µM. The TGI (CCRF-CEM leukemia) was 55.4 µM, the TGI (HCC-2998 colon) was 25 µM and the TGI (EKVX NSCLC) was over 100 µM. For the same molecule, the TGI (NCI-H460 lung) was 51.3 µM, the TGI (LOX IMVI melanoma) was 33.9 µM and the TGI (SK-MEL-2 melanoma) was 36.2 µM. For the same molecule, the TGI (T-47D breast) was over 100 µM, the TGI (PC-3 prostate) was 88.7 µM and the TGI (A549 NSCLC) was over 100 µM. It also gave a TGI (SK-MEL-28 melanoma) of 82 µM, a TGI (RPMI-8226 leukemia) of 39.8 µM and a TGI (MCF7 breast) of 80.2 µM. It also gave a TGI (SK-MEL-5 melanoma) of 23.1 µM.

Reference: PubChem BioAssay (NCI)
